Marks after values point to notes of the source that are not given here. One block for each compound: values may come before it.
Key:
[1] = In vitro skin permeation of angiotensin II, Franz cell infinite dose, EIA analysis; format: in vitro ADME, human
Description: Analysis of the peptide was carried out using an enzyme immunoassay (EIA) as described in the EIA booklet. Briefly, a competitive enzyme immunoassay which detects Ang II in biological matrices was employed. The principle of the assay is based upon the competition for antibody binding sites between biotinylated and non-biotinylated peptides. The biotin group on the biotinylated peptide is then conjugated to SA-HRP which in turn reacts with another substrate ([…]) leading to the formation of colour. The absorbance recorded from each well is a direct measure of the extent of binding for each peptide with the antibody. Absorbance was measured using a spectrophotometer. The method was validated by calibrating the response at different concentrations of the peptide (data not shown) and also the ability of the method to assess different concentrations of the penetrant in the presence of any matrices was investigated.
(§1) This is a well established physical method of enhancing skin permeation, in vitro, which involves the use of electric current to permeabilise skin and/or promote the migration of drug ions across skin (Cullander, 1992; Guy et al., 2001; Kalia et al., 2004). Anodal treatment was conducted by placing the anode electrode in the donor compartment and the opposite electrode (cathode) in the receptor compartment of the Franz cell. Cathodal iontophoresis was conducted vice versa. The current treatment protocols employed were either • (a) iontophoresis: dose was administered simultaneously with current or • (b) post-iontophoresis: dose applied immediately after skin exposure to current. • A current intensity of 0.40 mA was employed for a 10 min period during both protocols. Novel Device (Rotatinig Brush) Procedure

[2] = In vitro skin permeation, Franz cell pseudo-finite dose study (acyclovir and CF); format: in vitro ADME, human; details: for Amount in receptor after 60 min: Zovirax cream spiked with 3H-ACV; for EF: acyclovir, vs untreated skin
Description: Zovirax® spiked with ^3H-ACV was used as the formulation for the entire study. Briefly, 300 μl of ^3H ACV was placed into a 1.5 ml centrifuge tube and evaporated off, over a stream of air. Approximately 1 g of Zovirax® was weighed into the centrifuge tube and carefully mixed with a fine spatula to achieve a homogenous mix. To test for homogeneity, 3 random samples (top, middle and bottom) were taken and determined for radioactivity via scintillation counting.
as §1, with “Anodal” for “This is a well established physical method of enhancing skin permeation, in vitro, which involves the use of electric current to permeabilise skin and/or promote the migration of drug ions across skin (Cullander, 1992; Guy et al., 2001; Kalia et al., 2004). Anodal”
Finite dose permeation experiments were performed using similar conditions as described above. The Franz cell studies were carried out without the use of a donor well, in order to allow for the placement of the iontophoretic device over the epidermal membrane. […] The effectiveness of the seal was confirmed if leakage of receptor fluid from the region of contact between skin and adhesive was not observed.
A formulation with a target dose of approximately 9±1 mg/cm^2 (ACV) and 20±2 mg/cm^2 (CF) was applied to the epidermal membrane surface using a previously calibrated positive displacement pipette. Selected control experiments were then performed as described above (anodal and cathodal iontophoresis was performed by simultaneous application of dose and current over a 10 min period for CF and ACV respectively). At certain time intervals 200 μl of the receiver fluid was carefully withdrawn from the receiver fluid (maximum duration of 4 h). Approximately 4 ml of scintillation cocktail was then added and the ACV sample analysed by scintillation counting, whereas the other penetrant was assayed via the HPLC method already described.

[3] = In vitro skin permeation, Franz cell infinite dose study (optimisation studies with MP, BP, CF); details: CF; for EF enhancement factor: flux vs untreated skin
[4] = Table 4a, brush A 450 Nm^−2/20 s, 80 rpm
[5] = Table 4a, brush A 450 Nm^−2/45 s, 80 rpm
[6] = Table 4a, brush A 1200 Nm^−2/45 s, 80 rpm
[7] = Table 5a, EtOH/PBS (50% ethanol donor solution)
[8] = Table 5a, brush A 450 Nm^−2, 45 s, 80 rpm
[9] = Table 5a, brush B 300 Nm^−2, 15 s, 80 rpm
[10] = Table 5a, brush B 300 Nm^−2, 25 s, 80 rpm
[11] = brush B 10 s, 300 Nm^−2, 80 rpm
[12] = brush B 30 s, 300 Nm^−2, 80 rpm
[13] = brush B 60 s, 300 Nm^−2, 80 rpm

EF ([1]; 4 h, delipidisation vs untreated skin): 58 | EF ([1]; 4 h, post-iontophoresis vs untreated skin): 1.7 | EF ([1]; 4 h, rotating brush (brush B) vs untreated skin): 72 | EF ([1]; 4 h, tape-stripping vs untreated skin): 53 | EF ([1]; 24 h, delipidisation vs untreated skin): 49 | EF ([1]; 24 h, post-iontophoresis vs untreated skin): 6 | EF ([1]; 24 h, rotating brush (brush B) vs untreated skin): 63 | EF ([1]; 24 h, tape-stripping vs untreated skin): 27 | Amount in receptor after 4 h ([1]; delipidisation): 15.71 ± 2.85 ng/cm^2 | Amount in receptor after 24 h ([1]; delipidisation): 83.03 ± 24.28 ng/cm^2 | Amount in receptor after 24 h ([1]; post-iontophoresis): 10.02 ± 6.28 ng/cm^2 | Amount in receptor after 4 h ([1]; post-iontophoresis, value on sample re-analysis): 0.46 ± 0.15^+ ng/cm^2 | Amount in receptor after 4 h ([1]; rotating brush (brush B)): 19.45 ± 0.55 ng/cm^2 | Amount in receptor after 24 h ([1]; rotating brush (brush B)): 107.49 ± 19.66 ng/cm^2 | Amount in receptor after 4 h ([1]; tape-stripping): 14.44 ± 4.73 ng/cm^2 | Amount in receptor after 24 h ([1]; tape-stripping): 46.93 ± 15.62 ng/cm^2 | Amount in receptor after 4 h ([1]; untreated skin, 1 mg/ml in PBS): 0.27 ± 0.23 ng/cm^2 | Amount in receptor after 24 h ([1]; untreated skin, 1 mg/ml in PBS): 1.69 ± 1.01 ng/cm^2
SMILES: CC[C@H](C)[C@H](NC(=O)[C@H](Cc1ccc(O)cc1)NC(=O)[C@@H](NC(=O)[C@H](CCCNC(=N)N)NC(=O)[C@@H](N)CC(=O)O)C(C)C)C(=O)N[C@@H](Cc1cnc[nH]1)C(=O)N1CCC[C@H]1C(=O)N[C@@H](Cc1ccccc1)C(=O)O [Ang II, Angiotensin II]

SMILES: Cn1c(=O)c2c(ncn2C)n(C)c1=O [CF, Caffeine]
Amount of CF in receptor after 30 min compared with other methods of enhancement ([2]; pseudo-finite dose, brush B 300 Nm^−2/25 s): at least double | Amount of CF deposited in receptor compartment compared with untreated skin ([2]; pseudo-finite dose, chemical enhancement method (50% ethanol)): not to be significantly different | Time after which presence of CF in receptor was determined ([2]; pseudo-finite dose, untreated skin and chemical enhancement, limit of detection 0.05 ug/ml): 120 min | Reduction of lag times relative to original value ([3]; brush A, altering pressure or duration of treatment): ~75% | KP permeability coefficient [3, 4]: 5.04 ± 1.30 10^−8 cm/s | TL lag time [3, 4]: 68.33 ± 17.76 min | EF enhancement factor [3, 4]: 1.47 | JS flux ([3]; Table 4a, brush A 450 Nm^−2/20 s, 80 rpm, n = 2): 10.3 ± 2.67^p 10^−4 μg/cm/s | JS flux [3, 5]: 16.3 ± 0.86* 10^−4 μg/cm/s | KP permeability coefficient [3, 5]: 7.95 ± 0.42 10^−8 cm/s | TL lag time [3, 5]: 41.21 ± 8.09 min | EF enhancement factor [3, 5]: 2.34 | JS flux [3, 6]: 18.4 ± 8.93* 10^−4 μg/cm/s | KP permeability coefficient [3, 6]: 8.97 ± 4.06 10^−8 cm/s | TL lag time [3, 6]: 16.74 ± 6.50 min | EF enhancement factor [3, 6]: 2.64 | JS flux ([3]; Table 4a, delipidised skin): 52.25 ± 25.17* 10^−4 μg/cm/s | KP permeability coefficient ([3]; Table 4a, delipidised skin): 25.66 ± 12.28 10^−8 cm/s | TL lag time ([3]; Table 4a, delipidised skin): 4.19 ± 1.39 min | EF enhancement factor ([3]; Table 4a, delipidised skin): 7.47 | KP permeability coefficient ([3]; Table 4a, untreated skin): 3.39 ± 0.75 10^−8 cm/s | TL lag time ([3]; Table 4a, untreated skin): 77.66 ± 12.96 min | KP permeability coefficient [3, 7]: 141.4 ± 31.21 10^−8 cm/s | TL lag time [3, 7]: 26.71 ± 9.26 min | EF enhancement factor ([3]; Table 5a, EtOH/PBS): 15.46 | JS flux [3, 8]: 8.52 ± 0.29* 10^−4 μg/cm/s | KP permeability coefficient [3, 8]: 41.61 ± 14.19 10^−8 cm/s | TL lag time [3, 8]: 16.74 ± 3.99 min | EF enhancement factor [3, 8]: 4.55 | KP permeability coefficient [3, 9]: 342.4 ± 170.1 10^−8 cm/s | EF enhancement factor [3, 9]: 37.41 | KP permeability coefficient [3, 10]: 589.93 ± 207.62 10^−8 cm/s | EF enhancement factor [3, 10]: 64.44 | KP permeability coefficient ([3]; Table 5a, delipidised skin): 99.68 ± 26.84 10^−8 cm/s | EF enhancement factor ([3]; Table 5a, delipidised skin): 10.93 | TL lag time ([3]; Table 5a, untreated skin): 19.69 ± 3.54 min

Amount in receptor after 60 min [2, 11]: 5.06 ± 1.88 µg/cm^2 | Amount in receptor after 60 min [2, 12]: 12.5 ± 4.02 µg/cm^2 | Amount in receptor after 60 min [2, 13]: 30.91 ± 5.45 µg/cm^2 | Amount in receptor after 60 min ([2]; cathodal iontophoresis 10 min, 0.40 mA): 4.95 ± 2.35 µg/cm^2 | Amount in receptor after 60 min ([2]; untreated skin): 0.14 ± 0.08 µg/cm^2 | EF [2, 11]: 36 | EF [2, 12]: 89 | EF [2, 13]: 220 | EF ([2]; cathodal iontophoresis 10 min): 35 | Increase in enhancement factor compared to iontophoresis ([2]; brush B at maximum treatment time (60 s)): ca. 600%
SMILES: Nc1nc2c(ncn2COCCO)c(=O)[nH]1 [acyclovir, Acyclovir]

— US20060130266A1, “Dermal drug delivery system” (priority 2004, published 2006)
